Literature values in article PMC11575912 (Journal of Clinical Oncology, 2024).

Columns and labels:
[1] = test system: p110α over the β, δ, and γ isoforms; conditions: biochemical assays
CYP = conditions: in vitro or in the human mass balance study; ref unpublished data on file
[2] = once daily

C[C@H](Nc1ccc2c(c1)OCCn1cc(N3C(=O)OC[C@H]3C(F)F)nc1-2)C(N)=O [inavolisib]
Selectivity for p110α over the β, δ, and γ isoforms [1]: > 300 fold | CYP-mediated metabolism (CYP): did not undergo extensive CYP-mediated metabolism | Single-agent maximum tolerable dose [2]: 9 mg
